Laboratory results: patent US11006631B2, “Substituted pyrimidinyloxy pyridine derivatives as herbicides” (FMC Corporation, priority 2015, dated 2021)

What was measured:
Type in all cases: in vivo
kochia (Kochia scoparia) [1] = experiment: Test C postemergence, kochia
Text: (§1) Seeds of plant species selected from blackgrass (Alopecurus myosuroides), ryegrass, Italian (Italian ryegrass, Lolium multiflorum), wheat (winter wheat, Triticum aestivum), galium (catchweed bedstraw, Galium aparine), corn (Zea mays), crabgrass, large (large crabgrass, Digitaria sanguinalis), foxtail, giant (giant foxtail, Setaria faberii), lambsquarters (Chenopodium album), morningglory (Ipomoea coccinea), nutsedge, yellow (yellow nutsedge, Cyperus esculentus), pigweed (Amaranthus retroflexus), johnsongrass (Sorghum halepense), ragweed (common ragweed, Ambrosia elatior), soybean (Glycine max), barnyardgrass (Echinochloa crus-galli), oilseed rape (Brassica napus), waterhemp (common waterhemp, Amaranthus rudis), chickweed (common chickweed, Stellaria media), oat, wild (wild oat, Avena fatua), kochia (Kochia scoparia), and velvetleaf (Abutilon theophrasti) were planted in pots containing Redi-Earth® planting medium (Scotts Company, 14111 Scottslawn Road, Marysville, Ohio 43041) comprising spaghnum peat moss, vermiculite, wetting agent and starter nutrients and treated with postemergence applications of a test chemical formulated in a non-phytotoxic solvent mixture which included a surfactant. Plants ranged in height from 2 to 18 cm (1- to 4-leaf stage) for postemergence treatments. Treated plants and controls were maintained in a greenhouse for 13 to 15 days, after which time all species were compared to controls and visually evaluated. Plant response ratings, summarized in Table C, are based on a scale of 0 to 100 where 0 is no effect and 100 is complete control. A dash (-) response means no test result.

corn (Zea mays) [2] = experiment: Test C postemergence, corn
Text: as §1

[3] = tested on: galium (catchweed bedstraw, Galium aparine); experiment: Test C postemergence, galium
Text: as §1

[4] = tested on: lambsquarters (Chenopodium album); experiment: Test C postemergence, lambsquarters
Text: as §1

[5] = tested on: morningglory (Ipomoea coccinea); experiment: Test C postemergence, morningglory
Text: as §1

[6] = tested on: barnyardgrass (Echinochloa crus-galli); experiment: Test A postemergence, barnyardgrass; conditions: 0 to 100 scale
Summary of the method: (§2)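 Greenhouse pot test, loam + sand. Preemergence = soil spray at sowing; postemergence = foliar spray, 1–2 leaf stage, 2–10 cm tall. ~10 d, then visual injury vs untreated, 0–100.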

[7] = tested on: velvetleaf (Abutilon theophrasti); experiment: Test C postemergence, velvetleaf
Text: as §1

[8] = tested on: chickweed (common chickweed, Stellaria media); experiment: Test C postemergence, chickweed
Text: as §1

soybean (Glycine max) = experiment: Test C postemergence, soybean
Text: as §1

kochia (Kochia scoparia) [9] = experiment: Test A preemergence, kochia; conditions: 0 to 100 scale
Text: (§3) Seeds of plant species selected from bamyardgrass (Echinochloa crus-galli), kochia (Kochia scoparia), ragweed (common ragweed, Ambrosia elatior), ryegrass, Italian (Italian ryegrass, Lolium multiflorum), foxtail, giant (giant foxtail, Setaria faberii), pigweed (Amaranthus retroflexus), crabgrass, large (large crabgrass, Digitaria sanguinalis), momingglory (Ipomoea spp.), velvetleaf (Abutilon theophrasti), wheat (Triticum aestivum), and corn (Zea mays) were planted into a blend of loam soil and sand and treated preemergence with a directed soil spray using test chemicals formulated in a non-phytotoxic solvent mixture which included a surfactant. At the same time, plants selected from these crop and weed species and also blackgrass (Alopecurus myosuroides), and galium (catchweed bedstraw, Galium aparine) were planted in pots containing the same blend of loam soil and sand and treated with postemergence applications of test chemicals formulated in the same manner. Plants ranged in height from 2 to 10 cm and were in the one- to two-leaf stage for the postemergence treatment. Treated plants and untreated controls were maintained in a greenhouse for approximately 10 days, after which time all treated plants were compared to untreated controls and visually evaluated for injury. Plant response ratings, summarized in Table A, are based on a 0 to 100 scale where 0 is no effect and 100 is complete control. A dash (-) response means no test result.

rice (Oryza sativa) = experiment: Test B flooded paddy test, rice; conditions: Flood, 250 g ai/ha; scale of 0 to 100
Summary of the method: (§4)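 2-leaf plants; flood 3 cm over soil; compound into paddy water; depth held. Greenhouse 13–15 d. Visual rating vs controls, 0 (no effect) to 100 (complete control); dash = not tested.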

[10] = tested on: ryegrass, Italian (Italian ryegrass, Lolium multiflorum); experiment: Test A postemergence, ryegrass, Italian; conditions: 0 to 100 scale
Text: as §3

kochia (Kochia scoparia) [11] = experiment: Test A postemergence, kochia; conditions: 0 to 100 scale
Text: as §3

[12] = tested on: barnyardgrass (Echinochloa crus-galli); experiment: Test C postemergence, barnyardgrass
Text: as §1

[13] = tested on: barnyardgrass (Echinochloa crus-galli); experiment: Test B flooded paddy test, barnyardgrass; conditions: Flood, 250 g ai/ha; scale of 0 to 100
Summary of the method: as §4

[14] = tested on: foxtail, giant (giant foxtail, Setaria faberii); experiment: Test C postemergence, foxtail, giant
Text: as §1

corn (Zea mays) [15] = experiment: Test A postemergence, corn; conditions: 0 to 100 scale
Summary of the method: as §2

[16] = tested on: pigweed (Amaranthus retroflexus); experiment: Test A postemergence, pigweed; conditions: 0 to 100 scale
Summary of the method: as §2

## FC(F)c1cc(-c2ncccc2Oc2ncc(Cl)cn2)on1 [Compound 5, 5-chloro-2-[[2-[3-(difluoromethyl)-5-isoxazolyl]-3-pyridinyl]oxy]pyrimidine]
Kochia (Kochia scoparia) [1]; 16 g ai/ha
  Plant response rating, Kochia: 90
Kochia (Kochia scoparia) [1]; 31 g ai/ha
  Plant response rating, Kochia: 90
Kochia (Kochia scoparia) [1]; 62 g ai/ha
  Plant response rating, Kochia: 90
Kochia (Kochia scoparia) [1]; 125 g ai/ha
  Plant response rating, Kochia: 90
Corn (Zea mays) [2]; 16 g ai/ha
  Plant response rating, Corn: 5
Corn (Zea mays) [2]; 31 g ai/ha
  Plant response rating, Corn: 5
Corn (Zea mays) [2]; 62 g ai/ha
  Plant response rating, Corn: 5
Corn (Zea mays) [2]; 125 g ai/ha
  Plant response rating, Corn: 5
[3]; 16 g ai/ha
  Plant response rating, Galium: 35
[3]; 31 g ai/ha
  Plant response rating, Galium: 75
[3]; 62 g ai/ha
  Plant response rating, Galium: 80
[3]; 125 g ai/ha
  Plant response rating, Galium: 90
[4]; 16 g ai/ha
  Plant response rating, Lambsquarters: 35
[4]; 31 g ai/ha
  Plant response rating, Lambsquarters: 70
[4]; 62 g ai/ha
  Plant response rating, Lambsquarters: 55
[4]; 125 g ai/ha
  Plant response rating, Lambsquarters: 60
[5]; 16 g ai/ha
  Plant response rating, Morningglory: 75
[5]; 31 g ai/ha
  Plant response rating, Morningglory: 65
[5]; 62 g ai/ha
  Plant response rating, Morningglory: 65
[5]; 125 g ai/ha
  Plant response rating, Morningglory: 85
[6]; 31 g ai/ha
  Plant response rating, Barnyardgrass: 0
[6]; 125 g ai/ha
  Plant response rating, Barnyardgrass: 20
[7]; 16 g ai/ha
  Plant response rating, Velvetleaf: 40
[7]; 31 g ai/ha
  Plant response rating, Velvetleaf: 50
[7]; 62 g ai/ha
  Plant response rating, Velvetleaf: 70
[7]; 125 g ai/ha
  Plant response rating, Velvetleaf: 60
[8]; 16 g ai/ha
  Plant response rating, Chickweed: 35
[8]; 31 g ai/ha
  Plant response rating, Chickweed: 40
[8]; 62 g ai/ha
  Plant response rating, Chickweed: 55
[8]; 125 g ai/ha
  Plant response rating, Chickweed: 60
Soybean (Glycine max); 16 g ai/ha
  Plant response rating, Soybean: 60
Soybean (Glycine max); 31 g ai/ha
  Plant response rating, Soybean: 70
Soybean (Glycine max); 62 g ai/ha
  Plant response rating, Soybean: 40
Soybean (Glycine max); 125 g ai/ha
  Plant response rating, Soybean: 90
Kochia (Kochia scoparia) [9]; 31 g ai/ha
  Plant response rating, Kochia: 10
Kochia (Kochia scoparia) [9]; 125 g ai/ha
  Plant response rating, Kochia: 80
Rice (Oryza sativa)
  Plant response rating, Rice: 0
[10]; 31 g ai/ha
  Plant response rating, Ryegrass, Italian: 0
[10]; 125 g ai/ha
  Plant response rating, Ryegrass, Italian: 0
Kochia (Kochia scoparia) [11]; 31 g ai/ha
  Plant response rating, Kochia: 80
Kochia (Kochia scoparia) [11]; 125 g ai/ha
  Plant response rating, Kochia: 90
[12]; 16 g ai/ha
  Plant response rating, Barnyardgrass: 0
[12]; 31 g ai/ha
  Plant response rating, Barnyardgrass: 0
[12]; 62 g ai/ha
  Plant response rating, Barnyardgrass: 5
[12]; 125 g ai/ha
  Plant response rating, Barnyardgrass: 10
[13]
  Plant response rating, Barnyardgrass: 0
[14]; 16 g ai/ha
  Plant response rating, Foxtail, Giant: 0
[14]; 31 g ai/ha
  Plant response rating, Foxtail, Giant: 5
[14]; 62 g ai/ha
  Plant response rating, Foxtail, Giant: 5
[14]; 125 g ai/ha
  Plant response rating, Foxtail, Giant: 10
Corn (Zea mays) [15]; 31 g ai/ha
  Plant response rating, Corn: 0
Corn (Zea mays) [15]; 125 g ai/ha
  Plant response rating, Corn: 10
[16]; 31 g ai/ha
  Plant response rating, Pigweed: 80
[16]; 125 g ai/ha
  Plant response rating, Pigweed: 90
